Active and inactive are the calls of the source. The rule behind the calls is not given here.
Legend:
Staphylococcus aureus [1] = assay: Bactericidal activity against methicillin resistant Staphylococcus aureus 6347 cultured in MH medium assessed as reduction in bacterial survival incubated for 48 hrs by microbroth dilution method; format: functional; conditions: Staphylococcus aureus, 6347, 48 h
[2] = system: Staphylococcus epidermidis; assay: Resistance index, ratio of MIC for methicillin resistant Staphylococcus epidermidis ATCC 13199 measured after 4 dilution steps to MIC for Staphylococcus epidermidis ATCC 13199 measured after 48 hrs incubation by microbroth dilution method; format: functional
[3] = target: DNA gyrase (Escherichia coli) (UniProt P0AES6+P0AES4); assay: Inhibition of Escherichia coli DNA gyrase super-coiling activity using relaxed pNO1 DNA as substrate assessed as enzyme residual activity at 10 uM incubated for 30 mins by fluorescence assay relative to control; format: protein-complex assay
Pseudomonas aeruginosa = assay: Antibiofilm activity against Pseudomonas aeruginosa ATCC 9027 assessed as biofilm formation at 0.5 times antibacterial MIC incubated for 24 hrs compound added prior to bacterial biofilm formation by total biomass crystal violet staining-based method relative to control; format: functional
Staphylococcus aureus [4] = assay: Biofilm degradation activity against Staphylococcus aureus ATCC 6538 assessed as biofilm formation at 4 times antibacterial MIC incubated for 24 hrs compound added post-biofilm formation by total biomass crystal violet staining-based method; format: functional
Staphylococcus aureus [5] = assay: Antibiofilm activity against Staphylococcus aureus ATCC 25923 assessed as biofilm biomass at <0.625 uM incubated for 24 hrs compound added prior to bacterial biofilm formation by crystal violet staining based assay; format: functional, organism-based
Enterococcus hirae = assay: Bactericidal activity against Enterococcus hirae ATCC 1052 cultured in BHI medium assessed as reduction in bacterial survival incubated for 48 hrs by microbroth dilution method; format: functional; conditions: ATCC 1052, 48 h
HEK293 = assay: Cytotoxicity against human HEK293 cells assessed as cell viability upto 20 uM incubated for 72 hrs by MTT assay; format: cell-based; conditions: hek293, 72 h
[6] = system: Staphylococcus epidermidis; assay: Resistance index, ratio of MIC for methicillin resistant Staphylococcus epidermidis ATCC 13199 measured after 2 dilution steps to MIC for Staphylococcus epidermidis ATCC 13199 measured after 48 hrs incubation by microbroth dilution method; format: functional
[7] = system: Staphylococcus epidermidis; assay: Bactericidal activity against methicillin resistant Staphylococcus epidermidis ATCC 13199 cultured in MH medium assessed as reduction in bacterial survival incubated for 48 hrs by microbroth dilution method; format: functional; conditions: ATCC 13199, 48 h
Bacillus spizizenii = assay: Bactericidal activity against Bacillus subtilis ATCC 6633 cultured in MH medium assessed as reduction in bacterial survival incubated for 48 hrs by microbroth dilution method; format: functional; conditions: ATCC 6633, 48 h
Streptococcus pneumoniae = assay: Antibacterial activity against Streptococcus pneumoniae cultured in MH medium assessed as reduction in bacterial growth incubated for 48 hrs by microbroth dilution method; format: functional
DNA gyrase = DNA gyrase (Escherichia coli, UniProt P0AES4+P0AES6); assay: Inhibition of Escherichia coli DNA gyrase super-coiling activity using relaxed pNO1 DNA as substrate incubated for 30 mins by fluorescence assay; format: protein-complex assay
Staphylococcus aureus [8] = assay: Antibiofilm activity against Staphylococcus aureus ATCC 25923 pre-formed mature biofilm assessed as reduction in biofilm biomass at 40 uM incubated for 24 hrs compound added post biofilm formation by crystal violet staining based assay relative to control; format: functional; conditions: ATCC 25923, 24 h
Escherichia coli [9] = assay: Induction of inner membrane permeabilization in Escherichia coli ATCC 8739 assessed as increase in release of cytoplasmic beta galactosidase using ONPG as substrate at above bactericidal concentration incubated for 90 mins compound added with bacterial cells after lag time of about 10 mins by spectrophotometry; format: organism-based
[10] = Drug uptake in Escherichia coli ATCC 8739 assessed as membrane accumulation and affinity to cell structure at 128 ug/ml incubated for 30 mins by laser confocal microscopy; format: ADME; conditions: 0.5 h
Escherichia coli [11] = assay: Antibacterial activity against Escherichia coli ATCC 8739 assessed as reduction in cell number with morphological disorders at 128 ug/ml incubated for 30 mins by laser confocal microscopy; format: functional, organism-based
Escherichia coli [12] = assay: Induction of inner membrane permeabilization in Escherichia coli ATCC 8739 assessed as increase in release of cytoplasmic beta galactosidase using ONPG as substrate at 128 ug/ml incubated for 90 mins compound added with bacterial cells after lag time of about 10 mins by spectrophotometry; format: organism-based
Staphylococcus aureus [13] = assay: Antibiofilm activity against Staphylococcus aureus ATCC 25923 pre-formed mature biofilm assessed as reduction in biofilm viability at 40 uM incubated for 24 hrs compound added post-biofilm formation by resazurin staining based assay relative to control; format: functional; conditions: ATCC 25923, 24 h
[14] = Drug uptake in Escherichia coli ATCC 8739 assessed as cellular accumulation treated with 100 uM CCCP for 10 mins prior to compound challenge for 0.5 hrs by laser confocal microscopy; format: ADME
Escherichia coli [15] = assay: Antibacterial activity against Escherichia coli ATCC 8739 assessed as bacterial cell swelling followed by non-divisional long cord formation and cell aggregates formation at 128 ug/ml incubated for 30 mins by laser confocal microscopy; format: functional, organism-based

Row | Compound | MBC (Staphylococcus aureus [1]) | Activity [3] | Activity (Pseudomonas aeruginosa) | Activity (Staphylococcus aureus [4]) | inhibition (Staphylococcus aureus [5]) | MBC (Enterococcus hirae) | Activity (HEK293) | MBC [7] | MBC (Bacillus spizizenii) | MIC (Streptococcus pneumoniae) | IC50 (DNA gyrase) | further results
1 | CCn1cc(C(=O)O)c(=O)c2cc(F)c(N3CC[N+]4(CC3)CN3C(=N4)C(C(=O)O)=Cc4ccccc43)nc21.[Cl-] | 16 µg/mL | 73% | 52% | 16% | inactive | 512 µg/mL | Non-Toxic | 2 µg/mL | 2 µg/mL | 256 µg/mL |  | Ratio [2]: 16; Ratio [6]: 4
2 | CCn1cc(C(=O)O)c(=O)c2cc(F)c(N3CC[N+]4(CN5C(=N4)C(C(=O)O)=Cc4ccccc45)C(C)C3)c(F)c21.[Cl-] (stereo not given) | 16 µg/mL | 11% | 73% | 6% | inactive | 512 µg/mL | Non-Toxic | 2 µg/mL | 0.5 µg/mL | 512 µg/mL | 2.44 µM | 
3 | O=C(O)C1=Cc2ccccc2N2C[N+]3(CCN(c4cc5c(cc4F)c(=O)c(C(=O)O)cn5C4CC4)CC3)N=C12.[Cl-] | 2 µg/mL | 34% | 26% | 10% |  |  | Non-Toxic | 1 µg/mL | 2 µg/mL | 256 µg/mL | 6.02 µM | inhibition at 40 µM (Staphylococcus aureus [8]): 50%; Activity (Escherichia coli [9]): Active; Drug uptake [10]: Not Active; Activity (Escherichia coli [11]): Active; Activity (Escherichia coli [12]): Active; inhibition at 40 µM (Staphylococcus aureus [13]): 100%; Drug uptake [14]: Dose-dependent effect; Activity (Escherichia coli [15]): Active

— ChEMBL document CHEMBL4396913, “Synthesis and biological evaluation of hybrid quinolone-based quaternary ammonium antibacterial agents” (Eur J Med Chem, 2019)
